{"source": "patent US12396975B2", "about": "“Treatment of al amyloidosis with melflufen” (Oncopeptides AB, priority 2019, dated 2025)", "key": {"[1]": {"tested_on": "kappa light chain secretion in JJN3 cells", "assay": "Human Kappa ELISA of light chain secretion, JJN3", "type": "cell-based", "details": "72 h", "procedure": "(§1) Cells were plated in a 96-well format in the presence of the indicated compound in doses ranging from 0.014 to 10 mM for 72 hours at 37° C. Cell viability was determined by CellTiter-Blue™ using the manufacturer's standard protocol. Lambda and kappa light chain secretion was measured in the supernatant of cells by ELISA.\n(§2) In more detail, for each cell line (JJN3, ALMC-1 and ALMC-2) cells were harvested, washed, re-suspended into full growth media and counted. The cells were seeded at the cell densities shown in Table 1, below, into the inner 60 wells of a 96-well assay plates (Corning, black-wall plates, Cat #3904) in 50 μl/well aliquots. The plates were incubated overnight at 37° C. in 5% humidified CO2. 10 mM stocks of melphalan or melflufen-HCl were used, and sub-aliquots were prepared from the 10 mM stocks of melphalan or melflufen-HCl by diluting the stock. The diluted stock was added into cell culture media at the indicated concentrations for the experiment (0.014 to 10 mM).\n(§3) For analysis of secreted proteins, 72 h after incubation, the cells were pelleted by centrifugation at 300 RCF, 4° C. for 5 min and the supernatant taken and used immediately for ELISA analysis using commercial ELISA kits (below) and the manufacturer's protocols: • Human Kappa ELISA (Bethyl Laboratories, #E80-115) • Human Lambda ELISA (Bethyl Laboratories, #E80-116)"}, "JJN3 cell line": {"tested_on": "JJN3 cell line", "assay": "Cell viability by CellTiter-Blue, JJN3", "type": "cell-based, human", "details": "72 h; for pIC50: Homo sapiens, JJN-3, cell viability, CellTiter-Blue, doses 0.014 to 10 mM", "procedure": "(§4) Cellular toxicity was measured in response to either melflufen or melphalan in the amyloidosis patient-derived light chain secreting ALMC-1 and ALMC-2 cell lines, and the light chain secreting cell line JJN3.\nas §1, §2\n50 microliters per well of compound/vehicle dilutions were added to the plates in replicates of 3 and incubated for 72 h at 37° C. in 5% humidified CO2. To develop the plates after 72 h, 20 μl of CellTiter-Blue™ reagent was added to each test/blank well. The plates were incubated at 37° C., 5% humidified CO2 for 1.5/3 h. Fluorescence was measured using a VarioSkan Flash plate reader (570 nm excitation wavelength, 600 nm emission wavelength)."}, "ALMC-1 cell line": {"tested_on": "ALMC-1 cell line", "assay": "Cell viability by CellTiter-Blue, ALMC-1", "type": "cell-based, human", "details": "72 h", "procedure": "as §4, §1\n(§5) In more detail, for each cell line (JJN3, ALMC-1 and ALMC-2) cells were harvested, washed, re-suspended into full growth media and counted. The cells were seeded at the cell densities shown in Table 1, below, into the inner 60 wells of a 96-well assay plates (Corning, black-wall plates, Cat #3904) in 50 μl/well aliquots. The plates were incubated overnight at 37° C. in 5% humidified CO2. 10 mM stocks of melphalan or melflufen-HCl were used, and sub-aliquots were prepared from the 10 mM stocks of melphalan or melflufen-HCl by diluting the stock. […]\n(§6) 50 microliters per well of compound/vehicle dilutions were added to the plates in replicates of 3 and incubated for 72 h at 37° C. in 5% humidified CO2. […] Fluorescence was measured using a VarioSkan Flash plate reader (570 nm excitation wavelength, 600 nm emission wavelength)."}, "[2]": {"tested_on": "lambda light chain secretion in ALMC-2 cells", "assay": "Human Lambda ELISA of light chain secretion, ALMC-2", "type": "cell-based", "details": "72 h; for pIC50: Homo sapiens, ALMC2, light chain secretion in supernatant", "procedure": "as §1, §2, §3"}, "[3]": {"tested_on": "plasma cells (CD138+ cells) within bone marrow mononuclear cell samples from AL amyloidosis patients", "assay": "Multiplexed high throughput flow cytometry cytotoxicity assay on patient-derived bone marrow mononuclear cells", "type": "cell-based, human", "details": "for pEC50: Homo sapiens; for Cytotoxicity compared to melphalan: in vitro AL amyloidosis cell model, identical concentrations; for Response of plasma cells (CD138+ cells) to treatment: 1 to 100,000 nM", "procedure": "Viably frozen bone marrow mononuclear cells (MNC) from 11 amyloidosis patients were received from a biobank.\nViably frozen cells were thawed and incubated overnight to exclude apoptotic cells. On Day 1, a homogeneous cell suspension at a density of 2×10^6 cells/ml was prepared in RPMI 1640 medium (Lonza) supplemented with 10% fetal bovine serum, 2 mM L-glutamine, penicillin (100 U/ml), streptomycin (100 μg/ml) and 25% conditioned medium from the HS-5 human BM stromal cell line. Melflufen powders were stored in pre-weighted amounts in vials in oxygen and moisture free storage pods. Fresh 10 mM melflufen aliquots were prepared in DMSO. Serial dilutions were prepared in cell culture media and immediately transferred to 96 well plate containing mononuclear cells.\nA multiplexed high throughput flow cytometer based assay (iQue® Screener PLUS) was applied, allowing simultaneous monitoring of drug responses in multiple hematopoietic cell subsets. A panel of eight antibodies against CD8, CD14, CD19, CD38, CD45, CD56, CD138 and CD269 were purchased. Annexin-V and 7-AAD were included to exclude dead or apoptotic cells from the analysis. Optimal antibody concentrations were determined and fluorescence compensations were computed to correct spectral overlaps between different fluorochromes. The plates containing melflufen treated cells were incubated in a humidified environment at 37° C. and 5% CO2. After 72 h, antibody cocktails were added to the wells and incubated for 30 min before the plates were read with the iQue® Screener PLUS instrument (Intellicyt®). The data was analyzed using ForeCyt software (Intellicyt). Graphpad Prism 7.0 to generate dose response graphs. Singlet mononuclear cells were subjected to dead and apoptotic cell exclusion using DNA staining dye 7-AAD and expression of Annexin-V surface antigens. Live cell counts for each cell populations were used to analyse effect of different doses on cell viability. Surviving cell fraction were computed by normalizing with viability of untreated cells for each cell subsets.\nMelflufen was tested in six concentration over 100,000-fold dilutions (1 to 100,000 nM). Out of 12 cell samples tested, two samples were excluded due to poor viability. The viable samples were assigned the reference numbers AL-1886, AL-2983, AL-4839_2, AL-4839_3, AL-4847, AL-5691, AL-5716, AL-5807, AL-7219, AL-400081."}, "[4]": {"tested_on": "MM.1S, RPMI-8826, U266 and ALMC-2 cells", "assay": "Apoptosis and unfolded protein response (UPR) markers in malignant cell lines", "type": "cell-based, human", "details": "all cell lines tested; 6 h, 12 h or 24 h", "procedure": "The toxic effects of melflufen and melphalan were compared in malignant cell lines, including RPMI-8826, ALMC-2, MM1S, and U266 to confirm enhanced toxicity of melflufen compared to melphalan. ALMC-2 cells are derived from an amyloidosis patient. MM.1S, RPMI-8826, U266 or ALMC-2 cells were incubated in the presence or absence of melflufen-HCl or melphalan at the indicated concentrations in FIG. 5A for 6 h, 12 h or 24 h. Cells were then harvested and apoptosis and cell death in response to melflufen and melphalan were measured by Annexin V/propidium iodide and live/dead cell staining by flow cytometry, as well as analysis of cleaved caspases 3, 8, and 9 and PARP by western blot. Effects of melflufen and melphalan on the UPR were examined by analysis of UPR associated molecules including phosphorylated eIF2a, ATF4, IRE1a and PERK by immunoblot analysis using commercially available detection reagents and standard protocols, and ATF4, ATF6, PERK, IRE1 and CHOP by real time qPCR with gene specific primer sets. In addition, XBP-1 splicing was evaluated by PCR analysis."}, "[5]": {"tested_on": "lambda light chain secretion in ALMC-1 cells", "assay": "Human Lambda ELISA of light chain secretion, ALMC-1", "type": "cell-based", "details": "72 h; for pIC50: Homo sapiens, ALMC1, light chain secretion in supernatant", "procedure": "as §1, §2, §3"}, "ALMC-2 cell line": {"tested_on": "ALMC-2 cell line", "assay": "Cell viability by CellTiter-Blue, ALMC-2", "type": "cell-based, human", "details": "72 h", "procedure": "as §4, §1, §5, §6"}, "AL amyloidosis": {"tested_on": "AL amyloidosis", "details": "cited from earlier work"}}, "note": "pEC50, pIC50: −log10 of the molar value. Like-named read-outs stand apart in the source and are kept apart here.", "data": [{"compound": "CCOC(=O)[C@H](Cc1ccc(F)cc1)NC(=O)[C@@H](N)Cc1ccc(N(CCCl)CCCl)cc1.Cl", "note": "[melflufen, L-Melphalanyl-4-fluoro-L-phenylalanine ethyl ester]", "values": [{"measurement": "pIC50", "setting": "[1]; Homo sapiens, JJN-3, light chain secretion in supernatant", "value": 5.54}, {"measurement": "Inhibition of light chain secretion compared to melphalan", "setting": "[1]; JJN3", "value": "superior inhibition"}, {"measurement": "pIC50", "setting": "JJN3 cell line", "value": 5.92}, {"measurement": "Sensitivity compared with melphalan", "setting": "JJN3 cell line; JJN3", "value": "increased sensitivity"}, {"measurement": "Sensitivity compared with melphalan", "setting": "ALMC-1 cell line; ALMC-1", "value": "increased sensitivity"}, {"measurement": "pIC50", "setting": "ALMC-1 cell line; Homo sapiens, ALMC1, cell viability, CellTiter-Blue, doses 0.014 to 10 mM", "value": 5.80}, {"measurement": "Inhibition of light chain secretion compared to melphalan", "setting": "[2]; ALMC-2", "value": "superior inhibition"}, {"measurement": "pIC50", "setting": "[2]", "value": 6.35}, {"measurement": "pEC50", "setting": "[3]; 72 h, sample AL-2983, 72 h, read-out: EC50, survival of plasma cells (CD138+ cells)", "value": 8.15}, {"measurement": "pEC50", "setting": "[3]; 72 h, sample AL-4847, 72 h, read-out: EC50, survival of plasma cells (CD138+ cells)", "value": 7.49}, {"measurement": "pEC50", "setting": "[3]; 72 h, sample AL-5807, 72 h, read-out: EC50, survival of plasma cells (CD138+ cells)", "value": 9.00}, {"measurement": "pEC50", "setting": "[3]; cell samples obtained from a population of AL amyloidosis patients, lowest value, read-out: EC50 values as low as, in vitro AL amyloidosis cell model", "value": "≤ 9.00"}, {"measurement": "Cytotoxicity compared to melphalan", "setting": "[3]", "value": "at least 100 times"}, {"measurement": "Cytotoxicity compared to melphalan", "setting": "[3]; listed as Melflufen", "value": 100, "unit": "times"}, {"measurement": "Cytotoxicity in in vitro AL amyloidosis cell model", "setting": "[3]; plasma cells obtained from patients", "value": "highly cytotoxic"}, {"measurement": "Response of plasma cells (CD138+ cells) to treatment", "setting": "[3]; samples AL-1886, AL-4839_2, AL-4839_3, AL-5716 and AL-7219, 72 h", "value": "no notable response"}, {"measurement": "Response of plasma cells (CD138+ cells) to treatment", "setting": "[3]; samples AL-2983, AL-4847, AL-5691, AL-5807 and AL-400081, 72 h", "value": "displayed sensitivity"}, {"measurement": "Sensitivity with regard to inducing apoptosis, XBP-1 splicing and markers of UPR and apoptosis, compared to melphalan", "setting": "[4]", "value": "significantly more sensitive to melflufen than melphalan"}, {"measurement": "Inhibition of light chain secretion compared to melphalan", "setting": "[5]; ALMC-1", "value": "superior inhibition"}, {"measurement": "pIC50", "setting": "[5]", "value": 6.70}, {"measurement": "Sensitivity compared with melphalan", "setting": "ALMC-2 cell line; ALMC-2", "value": "increased sensitivity"}, {"measurement": "pIC50", "setting": "ALMC-2 cell line; Homo sapiens, ALMC2, cell viability, CellTiter-Blue, doses 0.014 to 10 mM", "value": 5.92}]}, {"compound": "N[C@@H](Cc1ccc(N(CCCl)CCCl)cc1)C(=O)O", "note": "[melphalan, reference compound]", "values": [{"measurement": "Treatment-related toxicity and mortality", "setting": "AL amyloidosis; high-dose melphalan (for example 200 mg/m^2) with autologous hematopoietic stem cell rescue", "value": "significant treatment-related toxicity and high treatment related mortality rates"}, {"measurement": "Plasma cell levels and survival", "setting": "AL amyloidosis; melphalan (for example 20-25 mg/m^2) in combination with prednisolone", "value": "reduce plasma cell levels and increase survival rates by a few months"}, {"measurement": "pIC50", "setting": "JJN3 cell line", "value": 5.27}, {"measurement": "pIC50", "setting": "[2]", "value": 5.29}, {"measurement": "pIC50", "setting": "[5]", "value": 5.60}]}]}
